Laboratory results from patent publication US20040116527A1, “Agents against stress-induced diseases” (AJINOMOTO CO., INC., priority 2001, published 2004).

Columns and labels:
Wistar rats [1] = experiment: Stress-induced gastric ulcer experiment, oral aqueous solutions (Example 5); type: in vivo, rat; conditions: 5 mL orally once daily for 3 days, water immersion 5 hours on day 4; compared with control group fed pure water
Method: To assess the effects of lysine administration on stress-induced gastric ulcers, 7-week Wistar rats (male; Nippon Charles-River) were used. For 7 days, normal diet (CRF-1; Oriental Yeast) was fed ad libitum to the rats, for preliminary feeding. For the stress experiment, rats were divided into the following three groups for feeding for another 3 days under starvation conditions: I) a control group (N=8) fed with pure water; 2) a group (N=8) given with an aqueous lysine solution (40 mg/mL); and 3) a group (N=4) given with an aqueous mixture solution of lysine glutamate salt (40 mg/mL) and arginine (40 mg/mL). The aqueous solutions were given to the individual groups in such a manner that dosing of 5 mL of each solution was enforced with an oral probe, once daily at 9:00 in the morning.
During the term, water was fed ad libitum. On day 4, the rats were placed in a stress gage (Natsume Seisakusho; KN-468) as in Example 3, to immerse the rats in water (temperature of 22 to 25° C.) so as to soak their breast for 5 hours to induce stress-induced gastric ulcer.

[2] = tested on: Broiler (species: Arbor Acres); experiment: Broiler feeding at normal and high density under very hot conditions (Example 8); type: in vivo; conditions: loading of lysine alone, ratio of arginine/lysine in the feed lowered
Text: Broiler (species: Arbor Acres) was fed under very hot conditions.
The feeding density was 8 chickens/1 m^2 (normal density) and 12 chickens/1 m^2 (high density) in two lots; the feeds were the following three groups: Feed 1=normal feed; Feed 2=normal feed+lysine (the lysine content 2-fold that in Feed 1); or Feed 3=normal feed+lysine+arginine (the lysine content and the arginine content were individually 2-fold those in Feed 1). A total of 6 experimental examples were set as combinations of the feeding densities and the feeds. The test was started on age 21 days (the mean body weight then was 722 g). The feeding results (body weight increment, feed requirement) on age 48 days were compared thereto. On the age 48 days, the chickens were sacrificed to death, for the evaluation of their meat quality (fat ratio in abdominal cavity). The feed requirement was expressed by the feed amount required for the increment of 1 g/body weight, as calculated by dividing the total feed intake by the body weight increment.

[3] = tested on: mojyako (young yellow tail); experiment: Feeding test under stress from feeding at high density in a water tank (Example 7); type: in vivo; conditions: for Total feed intake: 24 feeding days; for Daily feeding ratio (%) / Daily increment (%) / Feed efficiency (%) / Survival rate (%): 28 day test; for Survival rate (%): 40 fish per 800-L tank; for feed intake compared with the remaining experimental lots (involving higher body weight increment): over the 3 week to 4 week
Method: Test feeds were prepared by adding lysine hydrochloride salt at the ratio shown in Table 3 below to a commercially available mashed feed for mojyako. The lysine content in the dry feed is thereby at 4.8%, which is far above the dietetic requirement (1.78%). For comparison, further, a feed was prepared by adding arginine hydrochloride salt at the same level instead of lysine hydrochloride salt, for use at the test.
As test fish, each group of 40 mojyako fishes of mean fish body weight of about 35 g were placed in one 800-L water tank, to which the feeds were fed two times daily at 8:00 in the morning and 16:00 in the afternoon to satiation, for a total of 4 weeks. During the term, their body weights were measured weekly. Herein, feeding was not done at 16:00 in the afternoon on the day before the day for body weight measurement.

rats = experiment: Water-immersion restraint model of stress-induced gastric ulcer, diets (Example 3); type: in vivo, rat; conditions: 3-week feeding, 18 h starvation, water immersion 6 hours at 22 to 25 C
Method: Rats were fed with the low lysine diet and the lysine-added diet supplemented for lysine deficiency (see Table 1) for 3 weeks. After starvation for 18 hours, the rats were placed in a stress gage (Natsume Seisakusho; KN-468) to immerse the rats in water (temperature of 22 to 25° C.) so as to soak their breast for 6 hours. Thereafter, a stomach was resected, to calculate the area with gastric bleeding, to examine the degree of gastric bleeding with the NHI image software. […] A correlation between gastric bleeding and the incidence of gastric ulcer is observed in this model. Therefore, it can be concluded that adding lysine to diet can prevent stress-induced gastric ulcer occurring on the low lysine diet.

Wistar rats [4] = experiment: Model with stress-induced appetite loss, foot shock stress (Example 4); type: in vivo, rat; conditions: lysine-added diet (27 g/kg) vs control diet (13.4 g/kg), fed from 4 days before foot shock stress
Method: Wistar rats (male; age 13 weeks; about 400 g or so; N=16) were used at this experiment. Four days before the start of the experiment and throughout the stress experiment, the rats were fed with normal diet (control diet; lysine at 13.4 g/kg) and the lysine-added diet (27 g/kg). Under conditions of water ad libitum, feeding was done from 9:00 to 11:00. The rats were subjected to foot shock stress (1 mA/3 minutes; once per one hour at 19:00 to 7:00 on the next day) on day 4 of feeding; foot shock stress (1 mA/3 minutes, once per 2 hours at 19:00 to 7:00 on the next day) on day 5; and foot shock stress (1 mA/3 minutes, once at 7:00) on day 6. The changes in the total feed intake each day and the change of body weight over days were measured.

Wistar rats [5] = experiment: Elevated T-maze test after water-immersion stress, oral aqueous solutions (Example 6); type: in vivo, rat
Method: Seven-week Wistar rats (male, Nippon Charles-River) were used. For 7 days, the normal diet (CRF-1; Oriental Yeast) was fed ad libitum to the rats, for preliminary feeding. For the stress experiment, the rats were divided into the following three groups for feeding for another 3 days under starvation conditions: 1) a group (N=14) fed with an aqueous glutamine solution (120 mg/mL); 2) a group (N=14) given with an aqueous lysine solution (120 mg/mL); and 3) a group (N=14) given with an aqueous mixture solution of lysine glutamate salt (120 mg/mL) and arginine (120 mg/mL). The aqueous solutions were given to the individual groups in such a manner that dosing of 5 mL of each solution was enforced with an oral probe, once daily at 9:00 in the morning. During the term, water was fed ad libitum. On day 4, the rats were placed in a stress gage (Natsume Seisakusho; KN-468) to immerse the rats in water (temperature of 22 to 25° C.) so as to soak their breast for 4 hours for stress loading. Thereafter, elevated T-maze (see Example 1) test was done, for counting the time duration for searching action.

Structure (SMILES) | Total feed intake [3] [g] | Daily feeding ratio (%) [3] [%] | Daily increment (%) [3] [%] | Feed efficiency (%) [3] [%] | Survival rate (%) [3] [%] | Mean body weight at start [3] | Weekly feed intake (g) for 0-1 week [3] [g] | Weekly feed intake (g) for 1-2 week [3] [g] | Weekly feed intake (g) for 2-3 week [3] [g] | Weekly feed intake (g) for 3-4 week [3] [g] | Mean body weight on 1 week [3] | Mean body weight on 2 week [3] | Mean body weight on 3 week [3] | Mean body weight on 4 week (final) [3] | feed intake compared with the remaining experimental lots (involving higher body weight increment) [3] | also measured
NCCCC[C@H](N)C(=O)O [Lysine, L-Lysine] | 3452 | 4.29 | 3.68 | 85.8 | 100 | 34.8 | 18.4 | 38.3 | 59.9 | 86.3 | 46.4 | 63.7 | 84.2 | 108.9 | larger | areas of gastric bleeding (Wistar rats [1]): significant reduction; growth inhibition [2]: no growth inhibition is observed; body weight increment compared with the control ([3]; at the termination of the test): 17%; degree in areas of gastric bleeding (ratio of the area of gastric bleeding to the total gastric area) (rats): can prevent; effect on total feed intake and body weight change under stress (Wistar rats [4]): preventive effect; time duration for searching action (Wistar rats [5]; 5 mL orally once daily for 3 days, water immersion 4 hours on day 4, compared with the glutamine group): significantly prolonged
NC(=O)CC[C@H](N)C(=O)O [glutamine, L-Glutamine, reference compound] | – | – | – | – | – | – | – | – | – | – | – | – | – | – | – | time duration for searching action, glutamine group vs physiological saline group (Wistar rats [5]; evaluation of the effect of glutamine): No significant difference
N=C(N)NCCC[C@H](N)C(=O)O [Arginine, L-Arginine, reference compound] | 3072 | 4.09 | 3.36 | 82.0 | 100 | 35.5 | 18.7 | 36.7 | 54.5 | 76.8 | 45.7 | 61.5 | 77.6 | 98.5 | could not be obtained | –
